Laboratory results as given in patent US20130310256A1, “HERBICIDAL COMPOSITIONS COMPRISING 4-AMINO-3-CHLORO-5-FLUORO-6-(4-CHLORO-2-FLUORO-3-METHOXYPHENYL) PYRIDINE-2-CARBOXYLIC ACID OR A DERIVATIVE THEREOF AND VLCFA AND LIPID SYNTHESIS INHIBITING HERBICIDES” (DOW AGROSCIENCES LLC, priority 2008, published 2013).
Where “and” joins values, the source holds several entries; their conditions need not be identical. Equal entries are not always repeated. Where two headings read alike, the source gives them in different places.

How the values were obtained:
ECHOR = experiment: Example II: in-water applied weed control, transplanted paddy rice, greenhouse; format: in vivo, Echinochloa oryzoides (Ard.) Fritsch (early watergrass)
How it was run: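 Transplanted rice and weeds at the first to fourth true leaf stage in flooded mud pots (pH ~7.6 soil), greenhouse ~29/26 °C, 14 h photoperiod. Compound A (acid equivalent) and VLCFA/lipid-synthesis herbicides (active ingredient) injected into the paddy water in 1.25% crop oil concentrate. Injury scored visually at ~3 weeks versus untreated, 0–100%.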

FIMMI = experiment: as above; format: in vivo, Fimbristylis miliacea (L.) Vahl (globe fringerush); conditions: for Visual Weed Control FIMMI Obs: 19 DAA
Method: Weed seeds or nutlets of the desired test plant species were planted in puddled soil (mud) prepared by mixing a shredded, non-sterilized mineral soil (50.5 percent silt, 25.5 percent clay, and 24 percent sand, with a pH of about 7.6 and an organic matter content of about 2.9 percent) and water at a 1:1 volumetric ratio. The prepared mud was dispensed in 365 mL aliquots into 16-ounce (oz.) non-perforated plastic pots with a surface area of 86.59 square centimeters (cm^2) leaving a headspace of 3 centimeters (cm) in each pot. Mud was allowed to dry overnight prior to planting or transplanting. Rice seeds were planted in Sun Gro MetroMix® 306 planting mixture, which typically has a pH of 6.0 to 6.8 and an organic matter content of about 30 percent, in plastic plug trays. Seedlings at the second or third leaf stage of growth were transplanted into 840 mL of mud contained in 32-oz. non-perforated plastic pots with a surface area of 86.59 cm^2 4 days prior to herbicide application. The paddy was created by filling the headspace of the pots with 2.5 to 3 cm of water. When required to ensure good germination and healthy plants, a fungicide treatment and/or other chemical or physical treatment was applied. The plants were grown for 4-22 days in a greenhouse with an approximate 14 hr photoperiod which was maintained at about 29′C during the day and 26° C. during the night. Nutrients were added as Osmocote® (19:6:12, N:P:K+ minor nutrients) at 2 g per 16-oz. pot and 4 g per 32-oz. pot. Water was added on a regular basis to maintain the paddy flood, and supplemental lighting was provided with overhead metal halide 1000-Watt lamps as necessary. The plants were employed for testing when they reached the first through fourth true leaf stage.
Treatments consisted of the acid or esters of 4-amino-3-chloro-5-fluoro-6-(4-chloro-2-fluoro-3-methoxy-phenyl)pyridine-2-carboxylic acid (compound A) each formulated as an SC (suspension concentrate) and various herbicidal components alone and in combination. Forms of compound A were applied on an acid equivalent basis.
The herbicidal components were applied on an active ingredient basis and included very long chain fatty acid (VLCFA) synthesis-inhibiting and fatty acid/lipid synthesis-inhibiting herbicides acetochlor (technical grade material), acetochlor+dichlormid formulateded as Topnotch®, pretilachlor (technical grade material), butachlor formulated as Butachlor EC, fentrazamide formulated as Fentrazamide EC, thiobencarb formulated as Bolero® 8EC, cafenstrole formulated as Himeadow® WP or Lapost® Flowable, benfuresate formulated as Full Shot®, anilofos (technical grade material), mefenacet (technical grade material), molinate (technical grade material), and thenylchlor (technical grade material).
Treatment requirements for each compound or herbicidal component were calculated based upon the rates being tested, the concentration of active ingredient or acid equivalent in the formulation, an application volume of 2 mL per component per pot, and an application area of 86.59 cm^2 per pot.
For formulated compounds, a measured amount was placed in an individual 100 or 200 mL glass vial and was dissolved in a volume of 1.25% (v/v) Agri-Dex® crop oil concentrate to obtain application solutions.
For technical grade compounds, a weighed amount was placed in an individual 100 to 200 mL glass vial and was dissolved in a volume of acetone to obtain concentrated stock solutions. […] The concentrated stock solutions obtained were diluted with an equivalent volume of an aqueous mixture containing 2.5% (v/v) crop oil concentrate so that the final application solutions contained 1.25% (v/v) crop oil concentrate.
Applications were made by injecting with a pipetter appropriate amounts of the application solutions, individually and sequentially, into the aqueous layer of the paddy. Control plants were treated in the same manner with the solvent blank. […]

In the case of `CCS(=O)(=O)Oc1ccc2c(c1)C(C)(C)CO2` [Benfuresate, 2,3-dihydro-3,3-dimethyl-5-benzofuranyl ethanesulfonate], the pest or weed control at 150 g/ha (ECHOR; Echinochloa oryzoides, 528 h, 150 gai/ha (Full Slot), 22 DAA, read-out: Visual Weed Control ECHOR Obs) was 0%.
`CCN(CC)C(=O)n1cnc(S(=O)(=O)c2c(C)cc(C)cc2C)n1` [Cafenstrole, N,N-diethyl-3-[(2,4,6-trimethylphenyl)sulfonyl]-1H-1,2,4-triazole-1-carboxamide] gave a pest or weed control at 52.5 g/ha (ECHOR; Echinochloa oryzoides, 504 h, 52.5 gai/ha (Himeadow WP), 21 DAA, read-out: Visual Weed Control ECHOR Obs) of 10%, a pest or weed control at 52.5 g/ha (ECHOR; Echinochloa oryzoides, 504 h, 52.5 gai/ha (Lapost Flowable), 21 DAA, read-out: Visual Weed Control ECHOR Obs) of 70% and a pest or weed control at 105 g/ha (ECHOR; Echinochloa oryzoides, 504 h, 105 gai/ha (Himeadow WP), 21 DAA, read-out: Visual Weed Control ECHOR Obs) of 30%.
In the case of `COc1c(Cl)ccc(-c2nc(C(=O)O)c(Cl)c(N)c2F)c1F` [Compound A Acid, 4-amino-3-chloro-6-(4-chloro-2-fluoro-3-methoxyphenyl)-5-fluoropyridine-2-carboxylic acid], the “Visual Weed Control (%) - 20 DAA FIMMI Obs” value (FIMMI; 8.75 gae/ha) was 50%, the “Visual Weed Control (%) - 20 DAA ECHOR Obs” value (ECHOR; 8.75 gae/ha) was 10% and the “Visual Weed Control (%) - 20 DAA ECHOR Obs” value (ECHOR; 17.5 gae/ha) was 25%. For the same compound, the “Visual Weed Control (%) - 21 DAA ECHOR Obs” value (ECHOR; 17.5 gae/ha) was 25% and 20%, the “Visual Weed Control (%) - 20 DAA ECHOR Obs” value (ECHOR; 35 gae/ha) was 25% and the “Visual Weed Control (%) - 21 DAA ECHOR Obs” value (ECHOR; 35 gae/ha) was 30% and 35%. It also gave a pest or weed control at 35 g/ha (ECHOR; Echinochloa oryzoides, 504 h, 35 gae/ha, 21 DAA, read-out: Visual Weed Control ECHOR Obs) of 30%.
`COc1c(Cl)ccc(-c2nc(C(=O)OCc3ccccc3)c(Cl)c(N)c2F)c1F` [Compound A Benzyl Ester, benzyl ester of 4-amino-3-chloro-5-fluoro-6-(4-chloro-2-fluoro-3-methoxy-phenyl)pyridine-2-carboxylic acid] was tested, and the “Visual Weed Control (%) - 20 DAA FIMMI Obs” value (FIMMI; 4.38 gae/ha) was 30%, the “Visual Weed Control FIMMI Obs” value (FIMMI; 8 gae/ha) was 0% and the “Visual Weed Control (%) - 20 DAA FIMMI Obs” value (FIMMI; 8.75 gae/ha) was 60%. The “Visual Weed Control FIMMI Obs” value (FIMMI; 16 gae/ha) was 0%, the “Visual Weed Control FIMMI Obs” value (FIMMI; 32 gae/ha) was 85% and the “Visual Weed Control (%) - 20 DAA ECHOR Obs” value (ECHOR; 4.38 gae/ha) was 10%. For the same compound, the “Visual Weed Control (%) - 20 DAA ECHOR Obs” value (ECHOR; 8.75 gae/ha) was 20%, the “Visual Weed Control (%) - 21 DAA ECHOR Obs” value (ECHOR; 8.75 gae/ha) was 15% and 25% and the “Visual Weed Control (%) - 20 DAA ECHOR Obs” value (ECHOR; 17.5 gae/ha) was 50%. The pest or weed control at 4.38 g/ha (ECHOR; Echinochloa oryzoides, 480 h, 4.38 gae/ha, 20 DAA, read-out: Visual Weed Control ECHOR Obs) was 10%, the pest or weed control at 8.75 g/ha (ECHOR; Echinochloa oryzoides, 480 h, 8.75 gae/ha, 20 DAA, read-out: Visual Weed Control ECHOR Obs) was 20% and the pest or weed control at 17.5 g/ha (ECHOR; Echinochloa oryzoides, 480 h, 17.5 gae/ha, 20 DAA, read-out: Visual Weed Control ECHOR Obs) was 50%. It also gave a pest or weed control at 8.75 g/ha (ECHOR; Echinochloa oryzoides, 504 h, 8.75 gae/ha, 21 DAA, read-out: Visual Weed Control ECHOR Obs) of 15%, a pest or weed control at 8.75 g/ha (ECHOR; Echinochloa oryzoides, 528 h, 8.75 gae/ha, 22 DAA, read-out: Visual Weed Control ECHOR Obs) of 35% and a pest or weed control at 17.5 g/ha (ECHOR; Echinochloa oryzoides, 528 h, 17.5 gae/ha, 22 DAA, read-out: Visual Weed Control ECHOR Obs) of 30%.
For `CCCOCCN(C(=O)CCl)c1c(CC)cccc1CC` [Pretilachlor, 2-chloro-N-(2,6-diethylphenyl)-N-(2-propoxyethyl)acetamide], the “Visual Weed Control (%) - 20 DAA FIMMI Obs” value (FIMMI; 75 gai/ha) was 40%, the “Visual Weed Control (%) - 20 DAA FIMMI Obs” value (FIMMI; 150 gai/ha) was 45% and the “Visual Weed Control (%) - 20 DAA ECHOR Obs” value (ECHOR; 75 gai/ha) was 0%. The “Visual Weed Control (%) - 20 DAA ECHOR Obs” value (ECHOR; 150 gai/ha) was 30%.
